Patent US11242337B2, “Compounds useful for treating gastrointestinal tract disorders” (Ardelyx, Inc., priority 2017, dated 2022)

Key:
[1] = target: T1, NHE3 (Homo sapiens, UniProt P48764); assay: Cell-based assay of NHE-3 activity (persistent inhibition), human; conditions: human Persistence, 60 min incubation then washout
T1 construct: expressed in transfected cells
T1 sequence (P48764 26-834): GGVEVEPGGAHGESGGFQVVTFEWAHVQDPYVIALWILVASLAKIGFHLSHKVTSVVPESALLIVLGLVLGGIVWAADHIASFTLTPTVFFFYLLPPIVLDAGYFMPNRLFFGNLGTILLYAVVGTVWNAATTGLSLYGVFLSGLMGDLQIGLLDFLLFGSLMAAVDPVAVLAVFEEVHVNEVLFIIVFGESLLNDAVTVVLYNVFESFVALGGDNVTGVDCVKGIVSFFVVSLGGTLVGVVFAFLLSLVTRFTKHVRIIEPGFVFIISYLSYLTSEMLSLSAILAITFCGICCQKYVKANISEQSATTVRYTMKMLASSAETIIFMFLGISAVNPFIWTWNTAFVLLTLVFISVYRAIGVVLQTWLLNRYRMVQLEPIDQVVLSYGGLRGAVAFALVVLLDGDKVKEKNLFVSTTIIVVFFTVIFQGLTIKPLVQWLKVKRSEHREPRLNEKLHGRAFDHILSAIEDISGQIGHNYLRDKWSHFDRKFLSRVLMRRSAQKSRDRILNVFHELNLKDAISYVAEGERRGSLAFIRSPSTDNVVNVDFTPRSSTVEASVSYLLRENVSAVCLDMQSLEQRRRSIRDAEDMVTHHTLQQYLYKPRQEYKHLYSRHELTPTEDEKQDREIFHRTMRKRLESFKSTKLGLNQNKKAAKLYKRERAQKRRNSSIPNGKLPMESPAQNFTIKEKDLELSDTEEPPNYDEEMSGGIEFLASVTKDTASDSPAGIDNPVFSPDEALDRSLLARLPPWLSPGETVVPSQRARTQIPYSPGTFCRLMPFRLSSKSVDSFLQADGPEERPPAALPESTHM
T1 sequence (Q99653 2-195 partner limits assumed): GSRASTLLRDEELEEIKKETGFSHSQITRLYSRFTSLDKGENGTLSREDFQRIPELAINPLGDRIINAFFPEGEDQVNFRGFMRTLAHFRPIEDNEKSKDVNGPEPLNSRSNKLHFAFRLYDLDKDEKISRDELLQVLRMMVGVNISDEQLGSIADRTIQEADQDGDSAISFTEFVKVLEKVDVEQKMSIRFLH
In short: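 Persistent inhibition: compound (0-30 μM, 60 min, RT, NaCl-HEPES pH 7.4) removed before assay. Human NHE3/NHERF2 PS120 cells were then BCECF-loaded during NH4Cl pulse (30 min, 37 °C), acidified in Na+-free buffer, and Na+ added 10 min after washout; antiport measured as initial fluorescence-ratio change per minute.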

[2] = target: T1, NHE3; assay: Cell-based assay of NHE-3 activity (pre-incubation inhibition), human; conditions: human Preincubation; for pIC50: 0-30 μM test compound
In short: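 Activity read as initial rate of BCECF fluorescence ratio change per minute (ex 439/505, em 538 nm) following NH4Cl prepulse acid loading. Compound (0–30 μM) present during 10 min Na+-free acidification at room temperature; cells were PS120 fibroblasts stably co-expressing human NHE3 and NHERF2.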

| SMILES | % inhibition [1] | pIC50 [1] | % inhibition [2] | pIC50 [2] |
| --- | --- | --- | --- | --- |
| N[C@@H]1CCCN([C@H]2Cc3c(Cl)cc(Cl)cc3[C@@H]2Oc2ccc(S(=O)(=O)NCCOCCOCCNC(=O)NCCCCNC(=O)NCCOCCOCCNS(=O)(=O)c3ccc(O[C@H]4c5cc(Cl)cc(Cl)c5C[C@@H]4N4CCC[C@@H](N)C4)cc3F)c(F)c2)C1 [Example 103, 1-[2-(2-[2-[(4-[[(1S,2S)-2-[(3R)-3-Aminopiperidin-1-yl]-4,6-dichloro-2,3-dihydro-1H-inden-1-yl]oxy]-2-fluorobenzene)sulfonamido]ethoxy]ethoxy)ethyl]-3-[4-([[2-(2-[2-[(4-[[(1S,2S)-2-[(3R)-3-aminopiperidin-1-yl]-4,6-dichloro-2,3-dihydro-1H-inden-1-yl]oxy]-2-fluorobenzene)sulfonamido]ethoxy]ethoxy)ethyl]carbamoyl]amino)butyl]urea] | C (>70%) | C (NHE3 pIC50 > 7) | C (>70%) | C (NHE3 pIC50 > 7) |
| N[C@@H]1CCCN([C@H]2Cc3c(Cl)cc(Cl)cc3[C@@H]2Oc2ccc(S(=O)(=O)NCCOCCOCCNC(=O)NCCCCNC(=O)NCCOCCOCCNS(=O)(=O)c3ccc(O[C@H]4c5cc(Cl)cc(Cl)c5C[C@@H]4N4CCC[C@@H](N)C4)cc3Cl)c(Cl)c2)C1 [Example 104] | C (>70%) | C (NHE3 pIC50 > 7) | C (>70%) | C (NHE3 pIC50 > 7) |
| N#Cc1cc(Cl)cc2c1C[C@H](N1CCNCC1)[C@H]2Oc1ccc(S(=O)(=O)N[C@@H]2CCN(CCOCCNC(=O)NCCCCNC(=O)NCCOCCN3CC[C@@H](NS(=O)(=O)c4ccc(O[C@H]5c6cc(Cl)cc(C#N)c6C[C@@H]5N5CCNCC5)cc4)C3)C2)cc1 [Example 108, 4-([(1S,2S)-6-Chloro-4-cyano-2-(piperazin-1-yl)-2,3-dihydro-1H-inden-1-yl]oxy)-N—[(R)-1-(20-[(R)-3-([4-([(1S2S)-6-chloro-4-cyano-2-(piperazin-1-yl)-2,3-dihydro-1H-inden-1-yl]oxy)phenyl]sulfonamido)pyrrolidin-1-yl]-7,14-dioxo-3,18-dioxa-6,8,13,15-tetraazaicosyl)pyrrolidin-3-yl]benzenesulfonamide; tetra(trifluoroacetate)] | C (>70%) | C (NHE3 pIC50 > 7) | C (>70%) | C (NHE3 pIC50 > 7) |
| CN(C)[C@H]1Cc2c(Cl)cc(Cl)cc2[C@@H]1Oc1ccc(S(=O)(=O)N[C@H]2CCN(CCOCCNC(=O)NCCCCNC(=O)NCCOCCN3CC[C@H](NS(=O)(=O)c4ccc(O[C@H]5c6cc(Cl)cc(Cl)c6C[C@@H]5N(C)C)c(F)c4)C3)C2)cc1F [Example 111, 4-([(1S,2S)-4,6-Dichloro-2-(dimethylamino)-2,3-dihydro-1H-inden-1-yl]oxy)-N—[(S)-1-(20-[(S)-3-([4-([(1S,2S)-4,6-dichloro-2-(dimethylamino)-2,3-dihydro-1H-inden-1-yl]oxy)-3-fluorophenyl]sulfonamido)pyrrolidin-1-yl]-7,14-dioxo-3,18-dioxa-6,8,13,15-tetraazaicosyl)pyrrolidin-3-yl)-3-fluorobenzenesulfonamide; tetra(trifluoroacetate)] | C (>70%) | C (NHE3 pIC50 > 7) | C (>70%) | C (NHE3 pIC50 > 7) |
| CN(C)[C@H]1Cc2c(Cl)cc(Cl)cc2[C@@H]1Oc1ccc(S(=O)(=O)N[C@@H]2CCN(CCOCCNC(=O)NCCCCNC(=O)NCCOCCN3CC[C@@H](NS(=O)(=O)c4ccc(O[C@H]5c6cc(Cl)cc(Cl)c6C[C@@H]5N(C)C)c(F)c4)C3)C2)cc1F [Example 112, 4-([(1S,2S)-4,6-Dichloro-2-(dimethylamino)-2,3-dihydro-1H-inden-1-yl]oxy)-N—[(R)-1-(20-[(R)-3-([4-([(1S,2S)-4,6-dichloro-2-(dimethylamino)-2,3-dihydro-1H-inden-1-yl]oxy)-3-fluorophenyl]sulfonamido)pyrrolidin-1 yl]-7,14-dioxo-3,18-dioxa-6,8,13,15-tetraazaicosyl)pyrrolidin-3-yl)-3-fluorobenzenesulfonamide; tetra(trifluoroacetate)] | C (>70%) | C (NHE3 pIC50 > 7) | C (>70%) | C (NHE3 pIC50 > 7) |
| Cc1cc(S(=O)(=O)N[C@@H]2CCN(CCOCCNC(=O)NCCCCNC(=O)NCCOCCN3CC[C@@H](NS(=O)(=O)c4ccc(O[C@H]5c6cc(Cl)cc(C)c6C[C@@H]5N5CCC[C@@H](N(C)C)C5)c(C)c4)C3)C2)ccc1O[C@H]1c2cc(Cl)cc(C)c2C[C@@H]1N1CCC[C@@H](N(C)C)C1 [Example 113, 4-([(1S,2S)-6-Chloro-2-[(R)-3-(dimethylamino)piperidin-1-yl]-4-methyl-2,3-dihydro-1H-inden-1-yl]oxy)-N—[(R)-1-(20-[(R)-3-([4-([(1S,2S)-6-chloro-2-[(R)-3-(dimethylamino)piperidin-1-yl]-4-methyl-2,3-dihydro-1H-inden-1-yl]oxy)-3-methylphenyl]sulfonamido)pyrrolidin-1-yl]-7,14-dioxo-3,18-dioxa-6,8,13,15-tetraazaicosyl)pyrrolidin-3-yl]-3-methylbenzenesulfonamide; tetra(trifluoroacetate)] | C (>70%) | C (NHE3 pIC50 > 7) | C (>70%) | C (NHE3 pIC50 > 7) |
| Cc1cc(S(=O)(=O)N[C@H]2CCN(CCOCCNC(=O)NCCCCNC(=O)NCCOCCN3CC[C@H](NS(=O)(=O)c4ccc(O[C@H]5c6cc(Cl)cc(C)c6C[C@@H]5N5CCC[C@@H](N(C)C)C5)c(C)c4)C3)C2)ccc1O[C@H]1c2cc(Cl)cc(C)c2C[C@@H]1N1CCC[C@@H](N(C)C)C1 [Example 114, 4-([(1S,2S)-6-Chloro-2-[(R)-3-(dimethylamino)piperidin-1-yl]-4-methyl-2,3-dihydro-1H-inden-1-yl]oxy)-N—[(S)-1-(20-[(S)-3-([4-([(1S,2S)-6-chloro-2-[(R)-3-(dimethylamino)piperidin-1-yl]-4-methyl-2,3-dihydro-1H-inden-1-yl]oxy)-3-methylphenyl]sulfonamido)pyrrolidin-1-yl]-7,14-dioxo-3,18-dioxa-6,8,13,15-tetraazaicosyl)pyrrolidin-3-yl]-3-methylbenzenesulfonamide; tetra(trifluoroacetate)] | C (>70%) | C (NHE3 pIC50 > 7) | C (>70%) | C (NHE3 pIC50 > 7) |
| CN(C)[C@@H]1CCCN([C@H]2Cc3c(C#N)cc(Cl)cc3[C@@H]2Oc2ccc(S(=O)(=O)NCCOCCOCCNC(=O)NCCCCNC(=O)NCCOCCOCCNS(=O)(=O)c3ccc(O[C@H]4c5cc(Cl)cc(C#N)c5C[C@@H]4N4CCC[C@@H](N(C)C)C4)cc3)cc2)C1 [Example 121, 4-([(1S,2S)-6-Chloro-4-cyano-2-[(R)-3-(dimethylamino)piperidin-1-yl]-2,3-dihydro-1H-inden-1-yl]oxy)-N-[26-([4-([(1S,2S)-6-chloro-4-cyano-2-[(R)-3-(dimethylamino)piperidin-1-yl]-2,3-dihydro-1H-inden-1-yl]oxy)phenyl]sulfonamido)-10,17-dioxo-3,6,21,24-tetraoxa-9,11,16,18-tetraazahexacosyl]benzenesulfonamide] | A (NHE3 < 40%) | C (NHE3 pIC50 > 7) | B (40-70%) | C (NHE3 pIC50 > 7) |
